How the values were obtained:
[1] = system: C57BL/6 mice, bleomycin-induced pulmonary fibrosis; assay: Bleomycin-induced pulmonary fibrosis model, amount of lung hydroxyproline; type: in vivo; conditions: 0.3 mg/kg orally once daily, three weeks after intratracheal bleomycin 6 mg/kg, relative to solvent-administration group
Text: It has been reported that bleomycin administration into the trachea leads to pulmonary fibrosis. Its pathological findings including the hypertrophy and fibrosis of the alveolar wall, increased inflammatory cells, the increased amount of hydroxyproline etc. are similar to clinical idiopathic pulmonary fibrosis, and it has been often used as an experimental model of pulmonary fibrosis (Biochem. Biophys. Res. Comm. 288, 747 (2001)). To C57BL/6 mice (6-week-old, female), bleomycin hydrochloride (Bleo: NIPPON KAYAKU CO., LTD) (6 mg/kg, 25 μl/animal) was injected into the bronchus together with 500 μl of compressed air. Three weeks after administration into the trachea, the amount of hydroxyproline in the lung was determined. 0.3 mg/kg of the test substance was suspended in 0.5% carboxymethyl cellulose sodium, and orally administered once daily. The effect of the compound of the present invention was expressed in the inhibition percentage relative to the increased amount of lung hydroxyproline of the solvent-administration group, and shown in Table 3.

[2] = system: PAI-1 production in human airway epithelial cells (BEAS-2B); assay: Activity of inhibiting PAI-1 production using airway epithelial cells (TGF-β stimulated, ELISA); type: cell-based; conditions: BEAS-2B cells, 24 hours, PAI-1 in culture supernatant by ELISA
Method: The effect of a compound on PAI-1 production activity using airway epithelial cells was examined. This reflects PAI-1 concentration in the lung tissue related to fibrosis (lung).
The effect on the amount of PAI-1 produced using human airway epithelial cells (BEAS-2B) was examined. After 0.1 ml each of BEAS-2B cells prepared at 2×10^6 cells/ml was added to a collagen I-coated 96-well plate, preincubated for 24 hours, 0.1 ml of a medium containing […] TGF-β was added thereto and incubated for 24 hours, the amount of PAI-1 in the culture supernatant was determined using an ELISA kit. The test substance was dissolved in dimethyl sulfoxide (final concentration, 0.1% or less), and was prepared at 0.2, 1, 5 and 25 μM using a phosphate buffer, and added after preculturing. The activity of inhibiting PAI-1 production of the compound of the present invention was expressed in terms of the IC50 value and shown in Table 2.

Compound | Inhibition percentage relative to the increased amount of pulmonary hydroxyproline [1] [%] | IC50 [2] [µM] | IC50 ([2]; Homo sapiens) [µM]
COc1ccc(-c2cnn(-c3ccccc3)c(=O)c2)cc1OC1CCCC1 [Compound No. 6, 5-(3-(cyclopentyloxy)-4-methoxyphenyl)-2-phenylpyridazin-3-one] | 84 | – | –
COc1ccc(-c2cnn(Cc3ccc4ccccc4n3)c(=O)c2)cc1OC1CCCC1 [Compound No. 19, 5-(3-(cyclopentyloxy)-4-methoxyphenyl)-2-(2-quinolylmethyl)pyridazin-3-one] | 132 | – | –
5-(3-(cyclopropylmethyl)-4-methoxyphenyl)-2-methylpyridazin-3-one [Compound No. 2] | 66 | 16.8 | –
COc1ccc(-c2cnn(C)c(=O)c2)cc1OC1CCOC1 (centres unmarked) [Compound No. 12, 5-(4-methoxy-3-(3-tetrahydrofuranyloxy)phenyl)-2-methylpyridazin-3-one] | – | – | 4
COc1ccc(-c2cnn(C)c(=O)c2)cc1OC1CCCC1 [Compound No. 3, 5-(3-(cyclopentyloxy)-4-methoxyphenyl)-2-methylpyridazin-3-one] | 68 | – | 5.8
COc1ccc(-c2cn[nH]c(=O)c2)cc1OC1CCOC1 (centres unmarked) [Compound No. 4, 5-(4-methoxy-3-(3-tetrahydrofuranyloxy)phenyl)pyridazin-3-one] | – | – | 8.4
5-(4-methoxy-3-(tetrahydrofuranyloxy)phenyl)-2-phenylpyridazin-3-one [Compound No. 9] | 117 | – | –
COc1ccc(-c2cnn(C)c(=O)c2)cc1O[C@H]1CCOC1 [Compound No. 16, (S)-5-(4-methoxy-3-(3-tetrahydrofuranyloxy)phenyl)-2-methylpyridazin-3-one] | – | – | 23.2
COc1ccc(-c2cn[nH]c(=O)c2)cc1OC [Compound No. 1, 5-(3,4-dimethoxyphenyl)pyridazin-3-one] | – | – | 14.1

Source: patent US8106053B2, “5-phenyl-3-pyridazinone derivative” (Kowa Company, Ltd., priority 2007, dated 2012)
